Literature values in patent US20090011041A1, “Compositions for Correcting Age Related Changes of a Human Endocrine System and Methods for Producing a Pharmaceutical Form Bases on Said Compositions” (priority 2004, published 2009).
Like-named read-outs stand apart in the source and are kept apart here.

Legend:
[1] = tested on: production of IL-6 by peripheral mononuclears; conditions: dose-dependent manner; p<0.01
[2] = for distribution volume: after PO use
[3] = DHEA 50 mg/day, placebo effect less than 10%
IGF-1 level = conditions: elderly patients; 50 mg/day; p<0.01

Compound: C[C@]12CC[C@H](OS(=O)(=O)O)CC1=CC[C@@H]1[C@@H]2CC[C@]2(C)C(=O)CC[C@@H]12 [DHEA-S, DHEA-sulfate]
- production of IL-6 by peripheral mononuclears [1]: inhibit the production of IL-6
- distribution volume [2]: 8.5 to 9.3 L
- half-life period ([2]; b32): 7 to 10 h
- half-life period ([2]; b33): 7 to 22 h
- metabolic clearance rate (MCR) ([2]; in vivo): 5 to 20 L/day
- renal excretion, share of the elimination of DHEA-S and its metabolites ([2]; in vivo): 51-73%

Compound: C[C@]12CCC(=O)C=C1CC[C@@H]1[C@@H]2CC[C@]2(C)C(=O)CC[C@@H]12 [androstenedione]
- production of IL-6 by peripheral mononuclears [1]: inhibit the production of IL-6

Compound: C[C@]12CC[C@H](O)CC1=CC[C@@H]1[C@@H]2CC[C@]2(C)C(=O)CC[C@@H]12 [DHEA, dehydroepiandrosterone]
- improvement in the physical and mental state, females ([3]; females): 84%
- improvement in the physical and mental state, males ([3]; males): 67%
- production of IL-6 by peripheral mononuclears [1]: inhibit the production of IL-6
- distribution volume [2]: 17 to 38.5 L
- half-life period ([2]; b32): 0.25 to 0.5 h
- half-life elimination period ([2]; b33): 0.25 to 0.633 h
- metabolic clearance rate (MCR) ([2]; in vivo): 2000 L/day
- hyperglycemia and hyperinsulinemia (diabetic mice): reduces hyperglycemia and hyperinsulinemia
- IGF-1 level (IGF-1 level): increases the IGF-1 level
